Results: the supplement of paper PMC8612539
Values after ≈ are worked out from the molar mass of the structure shown.

Experiments:
Mannheimia haemolytica = assay: minimum inhibitory concentration (MIC)
Method: (§1)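 Broth microdilution MIC (Sensititre BOPO7F bovine plate, CLSI methods) of 19 antimicrobials against field isolates of P. multocida, M. haemolytica, H. somni (deep nasopharyngeal swabs) and E. coli, Enterococcus spp. (rectal swabs) from weaned dairy heifers. Incubation 16-24 h at 35 C. MIC is the lowest concentration preventing visible growth. Values with <= or > lie at the tested range limits. Trimethoprim-sulfamethoxazole is given as the trimethoprim component of a 1:19 mixture.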

Enterococcus spp. = assay: minimum inhibitory concentration (MIC)
Method: as §1

CO/N=C(\C(=O)N[C@@H]1C(=O)N2C(C(=O)O)=C(CSC(=O)c3ccco3)CS[C@H]12)c1csc(N)n1 [Ceftiofur]
minimum inhibitory concentration [µg/mL]
Conditions | Enterococcus spp. | Mannheimia haemolytica
isolate (source animal id): 2 | > 8 | –
isolate (source animal id): 8 | – | ≤ 0.25
isolate (source animal id): 13 | – | ≤ 0.25
isolate (source animal id): 18 | – | ≤ 0.25
isolate (source animal id): 21 | – | ≤ 0.25
isolate (source animal id): 25 | – | ≤ 0.25
isolate (source animal id): 27 | – | ≤ 0.25
isolate (source animal id): 28 | – | 2 (≈ 3.82 µM)
isolate (source animal id): 30 | – | ≤ 0.25
isolate (source animal id): 31 | – | ≤ 0.25
isolate (source animal id): 32 | – | ≤ 0.25
isolate (source animal id): 34 | – | ≤ 0.25
isolate (source animal id): 35 | > 8 | –
isolate (source animal id): 36 | – | ≤ 0.25
isolate (source animal id): 37 | – | ≤ 0.25
isolate (source animal id): 40 | – | ≤ 0.25
isolate (source animal id): 41 | – | ≤ 0.25
isolate (source animal id): 42 | 8 (≈ 15.3 µM) | –
isolate (source animal id): 43 | – | ≤ 0.25
isolate (source animal id): 44 | 2 (≈ 3.82 µM) | –
isolate (source animal id): 46 | – | ≤ 0.25
isolate (source animal id): 49 | – | ≤ 0.25
isolate (source animal id): 50 | – | ≤ 0.25
isolate (source animal id): 51 | – | ≤ 0.25
isolate (source animal id): 52 | – | ≤ 0.25
isolate (source animal id): 53 | – | ≤ 0.25
isolate (source animal id): 55 | – | ≤ 0.25
isolate (source animal id): 56 | – | ≤ 0.25
isolate (source animal id): 57 | – | ≤ 0.25
isolate (source animal id): 79 | 4 (≈ 7.64 µM) | –
isolate (source animal id): 88 | 0.5 (≈ 0.955 µM) | –
isolate (source animal id): 91 | 0.5 (≈ 0.955 µM) | –
isolate (source animal id): 92 | > 8 | –
isolate (source animal id): 100 | – | ≤ 0.25
isolate (source animal id): 103 | – | ≤ 0.25
isolate (source animal id): 107 | – | ≤ 0.25
isolate (source animal id): 108 | – | ≤ 0.25
isolate (source animal id): 111 | 0.5 (≈ 0.955 µM) | –
isolate (source animal id): 112 | – | ≤ 0.25
isolate (source animal id): 113 | – | ≤ 0.25
isolate (source animal id): 121 | – | ≤ 0.25
isolate (source animal id): 122 | > 8 | ≤ 0.25
isolate (source animal id): 123 | > 8 | ≤ 0.25
isolate (source animal id): 126 | – | ≤ 0.25
isolate (source animal id): 133 | > 8 | ≤ 0.25
isolate (source animal id): 135 | – | ≤ 0.25
isolate (source animal id): 138 | – | ≤ 0.25
isolate (source animal id): 141 | – | ≤ 0.25
isolate (source animal id): 142 | – | ≤ 0.25
isolate (source animal id): 145 | – | ≤ 0.25
isolate (source animal id): 149 | – | ≤ 0.25
isolate (source animal id): 151 | – | ≤ 0.25
isolate (source animal id): 152 | – | ≤ 0.25
isolate (source animal id): 154 | – | ≤ 0.25
isolate (source animal id): 158 | > 8 | –
isolate (source animal id): 159 | – | ≤ 0.25
isolate (source animal id): 162 | – | ≤ 0.25
isolate (source animal id): 168 | > 8 | –
isolate (source animal id): 169 | > 8 | –
isolate (source animal id): 170 | – | ≤ 0.25
isolate (source animal id): 171 | > 8 | ≤ 0.25
isolate (source animal id): 172 | – | ≤ 0.25
isolate (source animal id): 173 | – | ≤ 0.25
isolate (source animal id): 175 | > 8 | –
isolate (source animal id): 177 | > 8 | –
isolate (source animal id): 179 | – | ≤ 0.25
isolate (source animal id): 180 | – | ≤ 0.25
isolate (source animal id): 181 | > 8 | –
isolate (source animal id): 182 | > 8 | –
isolate (source animal id): 183 | 4 (≈ 7.64 µM) | ≤ 0.25
isolate (source animal id): 186 | – | ≤ 0.25
isolate (source animal id): 187 | > 8 | ≤ 0.25
isolate (source animal id): 188 | – | ≤ 0.25
isolate (source animal id): 190 | > 8 | ≤ 0.25
isolate (source animal id): 191 | – | ≤ 0.25
isolate (source animal id): 192 | – | ≤ 0.25
isolate (source animal id): 194 | > 8 | –
isolate (source animal id): 195 | > 8 | –
isolate (source animal id): 197 | 4 (≈ 7.64 µM) | –
isolate (source animal id): 201 | – | ≤ 0.25
isolate (source animal id): 202 | – | ≤ 0.25
isolate (source animal id): 209 | – | ≤ 0.25
isolate (source animal id): 211 | > 8 | ≤ 0.25
isolate (source animal id): 214 | 8 (≈ 15.3 µM) | –
isolate (source animal id): 220 | – | ≤ 0.25
isolate (source animal id): 221 | – | ≤ 0.25
isolate (source animal id): 222 | > 8 | –
isolate (source animal id): 223 | > 8 | ≤ 0.25
isolate (source animal id): 228 | > 8 | –
isolate (source animal id): 230 | > 8 | –
isolate (source animal id): 233 | – | ≤ 0.25
isolate (source animal id): 235 | > 8 | –
isolate (source animal id): 236 | > 8 | –
isolate (source animal id): 237 | – | ≤ 0.25
isolate (source animal id): 239 | 2 (≈ 3.82 µM) | –
isolate (source animal id): 241 | > 8 | ≤ 0.25
isolate (source animal id): 244 | > 8 | –
isolate (source animal id): 246 | > 8 | –
isolate (source animal id): 247 | > 8 | –
isolate (source animal id): 250 | > 8 | –
isolate (source animal id): 252 | > 8 | ≤ 0.25
isolate (source animal id): 253 | – | ≤ 0.25
isolate (source animal id): 259 | – | ≤ 0.25
isolate (source animal id): 260 | – | ≤ 0.25
isolate (source animal id): 262 | – | ≤ 0.25
isolate (source animal id): 268 | 0.5 (≈ 0.955 µM) | –
isolate (source animal id): 282 | > 8 | ≤ 0.25
isolate (source animal id): 285 | > 8 | –
isolate (source animal id): 287 | – | ≤ 0.25
isolate (source animal id): 288 | – | ≤ 0.25
isolate (source animal id): 289 | 8 (≈ 15.3 µM) | –
isolate (source animal id): 290 | 8 (≈ 15.3 µM) | –
isolate (source animal id): 291 | – | ≤ 0.25
isolate (source animal id): 293 | – | ≤ 0.25
isolate (source animal id): 296 | > 8 | –
isolate (source animal id): 298 | ≤ 0.25 | ≤ 0.25
isolate (source animal id): 299 | – | ≤ 0.25
isolate (source animal id): 300 | – | ≤ 0.25
isolate (source animal id): 301 | 8 (≈ 15.3 µM) | –
isolate (source animal id): 302 | – | ≤ 0.25
isolate (source animal id): 304 | – | ≤ 0.25
isolate (source animal id): 306 | – | ≤ 0.25
isolate (source animal id): 308 | – | ≤ 0.25
isolate (source animal id): 309 | – | ≤ 0.25
isolate (source animal id): 310 | > 8 | –
isolate (source animal id): 313 | – | ≤ 0.25
isolate (source animal id): 318 | – | ≤ 0.25
isolate (source animal id): 320 | 8 (≈ 15.3 µM) | ≤ 0.25
isolate (source animal id): 321 | – | ≤ 0.25
isolate (source animal id): 323 | – | ≤ 0.25
isolate (source animal id): 324 | – | ≤ 0.25
isolate (source animal id): 326 | – | ≤ 0.25
isolate (source animal id): 328 | – | ≤ 0.25
isolate (source animal id): 329 | – | ≤ 0.25
isolate (source animal id): 331 | 2 (≈ 3.82 µM) | –
isolate (source animal id): 333 | 2 (≈ 3.82 µM) | ≤ 0.25
isolate (source animal id): 335 | – | ≤ 0.25
isolate (source animal id): 338 | – | ≤ 0.25
isolate (source animal id): 341 | 2 (≈ 3.82 µM) | –
